Our source for the IC50 values is patent publication US20260035376A1, “COMPOSITIONS AND METHODS FOR INHIBITION OF RAS” (TheRas, Inc., priority 2022, published 2026).

Bounds are passed on as bounds.

The target of test [1] is T1, Avi-KRAS G12D (1-169) GppNHp/RAF1 RBD-3×FLAG (52-151) (Homo sapiens, UniProt P01116, G12D).
T1 construct: 50 nM Avi-KRAS G12D (1-169) GppNHp/RAF1 RBD-3×FLAG (52-151)
Nature of the test: Disrupting RAS-effector binding HTRF assay, Raf1 RBD-KRAS G12D-GppNHp. Particulars: PPI HTRF, 50 nM Avi-KRAS G12D GppNHp, compound titration 30-0.0045 μM; read-out: Raf1 RBD-KRAS G12D-GppNHp disruption.

Test [2] relates to KRAS G12D protein/effector signaling in GP2d cells. Nature of the test: Cell-based pERK HTRF assay in GP2d cell. Particulars: 1 h, 60 min incubation. A digest of the protocol: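 GP2d cells (DMEM, 10% FBS) exposed 60 min to a 9-point half-log compound series at 0.25% DMSO, then lysed. Phospho-ERK quantified by HTRF with d2/Eu cryptate antibodies after 4–24 h at room temperature, ex 320/em 615 nm.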

The target in test [3] is T2, Avi-KRAS G12R (1-169) GppNHp/RAF1 RBD-3×FLAG (52-151) (Homo sapiens, UniProt P01116, G12R).
T2 construct: 50 nM Avi-KRAS G12R (1-169) GppNHp/RAF1 RBD-3×FLAG (52-151)
T2 sequence (P01116 1-169 isoform P01116-2 G12R limits assumed): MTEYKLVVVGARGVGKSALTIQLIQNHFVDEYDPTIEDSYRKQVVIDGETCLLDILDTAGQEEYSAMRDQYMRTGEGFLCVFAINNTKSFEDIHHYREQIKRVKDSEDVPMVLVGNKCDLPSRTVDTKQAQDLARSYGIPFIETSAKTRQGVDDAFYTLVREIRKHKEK
Briefly: Disrupting RAS-effector binding HTRF assay, Raf1 RBD-KRAS G12R-GppNHp. The note with it: PPI HTRF, 50 nM Avi-KRAS G12R GppNHp, compound titration 30-0.0045 μM; read-out: Raf1 RBD-KRAS G12R-GppNHp disruption.

For test [4], the target named is T3, Avi-KRAS G12V (1-169) GppNHp/RAF1 RBD-3×FLAG (52-151) (Homo sapiens, UniProt P01116, G12V).
T3 construct: 50 nM Avi-KRAS G12V (1-169) GppNHp/RAF1 RBD-3×FLAG (52-151)
T3 sequence (P01116 1-169 isoform P01116-2 G12V limits assumed): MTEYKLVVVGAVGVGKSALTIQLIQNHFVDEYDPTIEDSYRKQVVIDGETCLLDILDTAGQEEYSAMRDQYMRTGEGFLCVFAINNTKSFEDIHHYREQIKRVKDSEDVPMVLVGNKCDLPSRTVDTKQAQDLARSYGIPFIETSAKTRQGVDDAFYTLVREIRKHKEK
Briefly: Disrupting RAS-effector binding HTRF assay, Raf1 RBD-KRAS G12V-GppNHp. Particulars: PPI HTRF, 50 nM Avi-KRAS G12V GppNHp, compound titration 30-0.0045 μM; read-out: Raf1 RBD-KRAS G12V-GppNHp disruption.

The target in test [5] is T4, Avi-KRAS WT (1-169) GppNHp/RAF1 RBD-3×FLAG (52-151) (Homo sapiens, UniProt P01116).
T4 construct: 50 nM Avi-KRAS WT (1-169) GppNHp/RAF1 RBD-3×FLAG (52-151)
T4 sequence (P01116 1-169 isoform P01116-2 limits assumed): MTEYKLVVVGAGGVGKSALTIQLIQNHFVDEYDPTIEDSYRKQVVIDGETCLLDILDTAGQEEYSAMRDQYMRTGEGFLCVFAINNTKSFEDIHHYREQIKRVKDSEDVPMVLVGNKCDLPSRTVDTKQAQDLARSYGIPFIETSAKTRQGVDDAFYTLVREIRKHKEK
Nature of the test: Disrupting RAS-effector binding HTRF assay, Raf1 RBD-KRAS WT-GppNHp. The note with it: PPI HTRF, 50 nM Avi-KRAS WT GppNHp, compound titration 30-0.0045 μM; read-out: Raf1 RBD-KRAS WT-GppNHp disruption.

The subject of test [6] is KRAS G12V protein/effector signaling in SW620 cells. Nature of the test: Cell-based pERK HTRF assay in SW620 cell. The note with it: Homo sapiens, SW-620, 1 h incubation. Here is the method:
pERK assay (Perkin Elmer) was used to determine the effectiveness of compounds in disrupting KRAS G12V protein/effector signaling in cells.
On Day 1, cells (SW620) were seeded into 96-well plates at 3×10^4 cells/well in 80 μL complete growth media (DMEM, 10% FBS).
On Day 2, cells were treated with compounds at 0.25% DMSO. The source plate was created with compounds diluted in media at 5-fold the final assay concentration. The compounds were run in a 9-point concentration curve starting at 10 μM, with a half-log dilution between concentrations. 20 μL was transferred onto the cell plates (final volume in wells was 100 μL). Plates were harvested after 1 h incubation by aspirating media and adding kit-supplied 1× supplemented lysis buffer to all wells (50 μL per well). Plates were then placed on a plate shaker and incubated at 850 rpm for an additional 30 min.
Antibody mixture solution was prepared by diluting aliquoted d2 and Eu Cryptate antibodies 1:20 in kit supplied detection buffer, and mixing the diluted antibodies solutions (1:1 v:v). Four μL of this solution was then added to a 384-well detection plate (Perkin Elmer; 6008230).
Samples were homogenized by pipetting up and down and then transferred (16 μL of cell lysates) from the 96-well cell culture plate to two wells of the HTRF 384-well detection plate containing the antibody solution. Plates were centrifuged (524 g for 1 min) and allowed to incubate between 4 and 24 h at room temperature. Maximum signal was reached after 4 h incubation time and remained stable over a period of 24 hours. Therefore, readings could be made between 4 and 24 h of incubation. Plates were centrifuged again (524 g for 1 min), then analyzed on the EnVision plate reader using the following settings: Excitation 320 nm, Bandwidth 75 nm; Emission 615 nm, Bandwidth 85 nm; Gain 100%; Flashes 100; Lag 60 μs.

T1 sequence (P01116 1-169 isoform P01116-2 G12D limits assumed): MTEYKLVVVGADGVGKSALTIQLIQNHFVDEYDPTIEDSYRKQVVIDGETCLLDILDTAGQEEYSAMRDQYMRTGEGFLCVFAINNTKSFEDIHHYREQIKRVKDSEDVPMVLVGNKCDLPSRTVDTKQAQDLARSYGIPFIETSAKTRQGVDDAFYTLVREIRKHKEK

`N#Cc1c(N)sc2c(F)ccc(-c3c(C(F)(F)F)cc4c(N5CC6CCC(C5)N6)nc(OCC5CCS(=O)(=O)CC5)nc4c3F)c12` [Compound 53]: the IC50 in test [1] was 0.1 to 1 µM; in test [2] it was ≤ 0.1 µM; in test [3], > 10 µM; in test [4], 1 to 10 µM; in test [5] it was 0.1 to 1 µM; in test [6] it was > 10 µM.

Consider `CN1C(=O)CC[C@H]1COc1nc(N2CC3CCC(C2)N3)c2cc(C(F)(F)F)c(-c3ccc(F)c4sc(N)c(C#N)c34)c(F)c2n1` [Compound 54], for which the IC50 in test [1] was 0.1 to 1 µM; in test [2], ≤ 0.1 µM; in test [3] it was > 10 µM; in test [4], > 10 µM; in test [5], 1 to 10 µM; in test [6], > 10 µM.

Regarding `CN1CCC(COc2nc(N3CC4CCC(C3)N4)c3cc(C(F)(F)F)c(-c4ccc(F)c5sc(N)c(C#N)c45)c(F)c3n2)C1=O` (stereo not drawn) [Compound 55], the IC50 in test [1] is 0.1 to 1 µM; in test [2], ≤ 0.1 µM; in test [3] it was 1 to 10 µM; in test [4] it was 1 to 10 µM; in test [5] it was 0.1 to 1 µM; in test [6], > 10 µM.

For the molecule `CN1C[C@@H](COc2nc(N3CC4CCC(C3)N4)c3cc(C(F)(F)F)c(-c4ccc(F)c5sc(N)c(C#N)c45)c(F)c3n2)CC1=O` [Compound 56], the IC50 in test [1] is 0.1 to 1 µM; in test [2], ≤ 0.1 µM; in test [3], 1 to 10 µM; in test [4] it was 1 to 10 µM; in test [5], 0.1 to 1 µM; in test [6] it was > 10 µM.

For the molecule `CN1C(=O)CC[C@@H]1COc1nc(N2CC3CCC(C2)N3)c2cc(C(F)(F)F)c(-c3ccc(F)c4sc(N)c(C#N)c34)c(F)c2n1` [Compound 57], the IC50 was 0.1 to 1 µM in test [1]; ≤ 0.1 µM in test [2]; > 10 µM in test [3]; > 10 µM in test [4]; 1 to 10 µM in test [5]; > 10 µM in test [6].

For the molecule `CN(c1nc(OCC2CCOCC2)nc2c(F)c(-c3ccc(F)c4sc(N)c(C#N)c34)c(C(F)(F)F)cc12)C1CCNCC1` [Compound 61], the IC50 in test [1] is 1 to 10 µM; in test [2] it was > 1 µM; in test [3], > 10 µM; in test [4], > 10 µM; in test [5], > 10 µM; in test [6] it was > 10 µM.

Regarding `CN(c1nc(OCC2CCOCC2)nc2c(F)c(-c3ccc(F)c4sc(N)c(C#N)c34)c(C(F)(F)F)cc12)[C@@H]1CCCNC1` [Compound 62], the IC50 in test [1] was 1 to 10 µM; in test [2], > 1 µM; in test [3] it was > 10 µM; in test [4], > 10 µM; in test [5] it was > 10 µM; in test [6], > 10 µM.

With `CN(c1nc(OCC2CCOCC2)nc2c(F)c(-c3ccc(F)c4sc(N)c(C#N)c34)c(C(F)(F)F)cc12)[C@H]1CCCNC1` [Compound 63], the IC50 in test [1] was > 10 µM; in test [2], > 1 µM; in test [3], > 10 µM; in test [4], > 10 µM; in test [5], > 10 µM; in test [6], > 10 µM.

For `N#Cc1c(N)sc2c(F)ccc(-c3c(C(F)(F)F)cc4c(N5CC6CCC(C5)N6)nc(OCCc5cnoc5)nc4c3F)c12` [Compound 65], the IC50 was 0.1 to 1 µM in test [1]; ≤ 0.1 µM in test [2]; > 10 µM in test [3]; > 10 µM in test [4]; 1 to 10 µM in test [5]; > 10 µM in test [6].
